Measurements from publication doi:10.1101/2023.05.15.540887, “Comparative analysis of drug-like EP300/CREBBP acetyltransferase inhibitors” (bioRxiv, 2023).

Tests used:
MDA-MB-435 = assay: NCI-60 growth inhibition (sulforhodamine B); assay type: cell-based, human; details: MDA-MB-435 (Melanoma), negative log of Molar conc., LCONC -8
HL-60(TB) [1] = assay: NCI-60 growth inhibition (sulforhodamine B); assay type: cell-based, human; details: HL-60(TB) (Leukemia), negative log of Molar conc., LCONC -8
NCI-H322M = assay: NCI-60 growth inhibition (sulforhodamine B); assay type: cell-based, human; details: NCI-H322M (Non-Small Cell Lung Cancer), negative log of Molar conc., LCONC -8
UACC-62 = tested on: UACC-62; set-up: method as in ref 29 (a number printed in a supplementary file, which may have a reference list of its own: not looked up in the article's list); details: Melanoma UACC-62; highest log conc -4.0; NCI-60 screen data; cited from earlier work
786-0 = tested on: 786-0; set-up: method as in ref 29 (a number printed in a supplementary file, which may have a reference list of its own: not looked up in the article's list); details: Renal 786-0; highest log conc -4.0; NCI-60 screen data; cited from earlier work
UACC-257 = tested on: UACC-257; set-up: method as in ref 29 (a number printed in a supplementary file, which may have a reference list of its own: not looked up in the article's list); details: Melanoma UACC-257; highest log conc -4.0; NCI-60 screen data; cited from earlier work
OVCAR-4 = tested on: OVCAR-4; set-up: method as in ref 29 (a number printed in a supplementary file, which may have a reference list of its own: not looked up in the article's list); details: Ovarian OVCAR-4; highest log conc -4.0; NCI-60 screen data; cited from earlier work
TK-10 = tested on: TK-10; set-up: method as in ref 29 (a number printed in a supplementary file, which may have a reference list of its own: not looked up in the article's list); details: Renal TK-10; highest log conc -4.0; NCI-60 screen data; cited from earlier work
CAKI-1 = tested on: CAKI-1; set-up: method as in ref 29 (a number printed in a supplementary file, which may have a reference list of its own: not looked up in the article's list); details: Renal CAKI-1; highest log conc -4.0; NCI-60 screen data; cited from earlier work
MOLT-4 = tested on: MOLT-4; set-up: method as in ref 29 (a number printed in a supplementary file, which may have a reference list of its own: not looked up in the article's list); details: Leukemia MOLT-4; highest log conc -4.0; NCI-60 screen data; cited from earlier work
EKVX = tested on: EKVX; set-up: method as in ref 29 (a number printed in a supplementary file, which may have a reference list of its own: not looked up in the article's list); details: Non-SmallCellLung EKVX; highest log conc -4.0; NCI-60 screen data; cited from earlier work
IGROV1 = tested on: IGROV1; set-up: method as in ref 29 (a number printed in a supplementary file, which may have a reference list of its own: not looked up in the article's list); details: Ovarian IGROV1; highest log conc -4.0; NCI-60 screen data; cited from earlier work
HL-60(TB) [2] = tested on: HL-60(TB); set-up: method as in ref 29 (a number printed in a supplementary file, which may have a reference list of its own: not looked up in the article's list); details: Leukemia HL-60(TB); highest log conc -4.0; NCI-60 screen data; cited from earlier work
HOP-92 = tested on: HOP-92; set-up: method as in ref 29 (a number printed in a supplementary file, which may have a reference list of its own: not looked up in the article's list); details: Non-SmallCellLung HOP-92; highest log conc -4.0; NCI-60 screen data; cited from earlier work
COLO205 = tested on: COLO205; set-up: method as in ref 29 (a number printed in a supplementary file, which may have a reference list of its own: not looked up in the article's list); details: Colon COLO205; highest log conc -4.0; NCI-60 screen data; cited from earlier work
HOP-62 = tested on: HOP-62; set-up: method as in ref 29 (a number printed in a supplementary file, which may have a reference list of its own: not looked up in the article's list); details: Non-SmallCellLung HOP-62; highest log conc -4.0; NCI-60 screen data; cited from earlier work
SK-OV-3 = tested on: SK-OV-3; set-up: method as in ref 29 (a number printed in a supplementary file, which may have a reference list of its own: not looked up in the article's list); details: Ovarian SK-OV-3; highest log conc -4.0; NCI-60 screen data; cited from earlier work
OVCAR-5 = tested on: OVCAR-5; set-up: method as in ref 29 (a number printed in a supplementary file, which may have a reference list of its own: not looked up in the article's list); details: Ovarian OVCAR-5; highest log conc -4.0; NCI-60 screen data; cited from earlier work
HCT-15 = tested on: HCT-15; set-up: method as in ref 29 (a number printed in a supplementary file, which may have a reference list of its own: not looked up in the article's list); details: Colon HCT-15; highest log conc -4.0; NCI-60 screen data; cited from earlier work
HCC-2998 = tested on: HCC-2998; set-up: method as in ref 29 (a number printed in a supplementary file, which may have a reference list of its own: not looked up in the article's list); details: Colon HCC-2998; highest log conc -4.0; NCI-60 screen data; cited from earlier work
NCI-H23 = tested on: NCI-H23; set-up: method as in ref 29 (a number printed in a supplementary file, which may have a reference list of its own: not looked up in the article's list); details: Non-SmallCellLung NCI-H23; highest log conc -4.0; NCI-60 screen data; cited from earlier work
[3] = Homo sapiens, read-out: GI50 NLOGVALUE (converted)
[4] = Homo sapiens, read-out: IC50 NLOGVALUE (converted)
[5] = Homo sapiens, read-out: LC50 NLOGVALUE

| SMILES | GI50 AVGDATA (UACC-62) | GI50 AVGDATA (786-0) | GI50 AVGDATA (UACC-257) | GI50 AVGDATA (OVCAR-4) | GI50 AVGDATA (TK-10) | GI50 AVGDATA (CAKI-1) | GI50 AVGDATA (MOLT-4) | GI50 AVGDATA (EKVX) | GI50 AVGDATA (IGROV1) | GI50 AVGDATA (HL-60(TB) [2]) | GI50 AVGDATA (HOP-92) | GI50 AVGDATA (COLO205) | GI50 AVGDATA (HOP-62) | GI50 AVGDATA (SK-OV-3) | GI50 AVGDATA (OVCAR-5) | GI50 AVGDATA (HCT-15) | GI50 AVGDATA (HCC-2998) | GI50 AVGDATA (NCI-H23) | further results |
| --- | --- | --- | --- | --- | --- | --- | --- | --- | --- | --- | --- | --- | --- | --- | --- | --- | --- | --- | --- |
| C[C@H](CN[C@@H](C(=O)Nc1ccc(-c2cnn(C)c2)cn1)c1ccccc1)c1ccc(C#N)cc1 [CPI-1612] | – | – | – | – | – | – | – | – | – | – | – | – | – | – | – | – | – | – | GI50 (MDA-MB-435; [3]): 0.0479 µM; IC50 (MDA-MB-435; [4]): 50.1 µM; CC50 (MDA-MB-435; [5]): > 100 µM; TGI NLOGVALUE (MDA-MB-435): 4; TGI NLOGVALUE (HL-60(TB) [1]): 4.6; GI50 (HL-60(TB) [1]; [3]): 0.0132 µM; IC50 (HL-60(TB) [1]; [4]): 15.5 µM; CC50 (HL-60(TB) [1]; [5]): > 100 µM; GI50 (NCI-H322M; [3]): 0.288 µM; IC50 (NCI-H322M; Homo sapiens, read-out: IC50 NLOGVALUE): > 100 µM; TGI NLOGVALUE (NCI-H322M): 4 |
| COC(=O)N1c2ccc3c(nc(Cc4ccccc4)n3[C@H]3CCC[C@H](C(=O)O)C3)c2CC[C@@H]1C [FT-6876] | -5.68 | -5.25 | -4.83 | -5.17 | -5.24 | -5.74 | -4.84 | -4.75 | -4.68 | -5.5 | -5.79 | -5.31 | -4.95 | -4.77 | -4.51 | -4.79 | -5.08 | – | – |
| Cc1sc2c(c1C)C(c1ccc(Cl)cc1)=N[C@@H](CC(=O)OC(C)(C)C)c1nnc(C)n1-2 [JQ-1] | -7.16 | -6.08 | -6.83 | -6.82 | -7.23 | -7.27 | -5.74 | -5.93 | -6.19 | -7.52 | -7.74 | -6.84 | -6.92 | -6.49 | -4.98 | -6.8 | -6.54 | -6.55 | – |
| CO[C@H]1CC[C@H](n2c([C@@H]3CCCC(=O)N3c3ccc(F)c(F)c3)nc3cc(-c4c(C)noc4C)ccc32)CC1 [inobrodib] | -5.6 | – | -5.59 | -6.11 | -5.61 | -6.19 | -4.77 | -5.4 | -5.34 | -6.07 | -5.69 | -5.67 | -5.35 | -5.39 | -4.77 | -5.33 | -5.38 | -4.88 | – |
